Test results from patent US20100160445A1, “Synergistic Mixtures of OPP and DGH” (priority 2002, published 2010).
Structures can show the parent of a compound that is named as a salt.

System: wild strain bacteria isolated from previously contaminated systems
Assay: In-Can Preservation Test of paint samples; on Microbial growth, 1st Inoculation, 1st sub-column: key: 4 = Heavy Microbial Growth; 3 = Moderate Microbial Growth; 2 = Slight Microbial Growth; 1 = Trace Microbial Growth; 0 = No Microbial Growth; on Microbial growth, 1st Inoculation, 2nd sub-column: key: 4 = Heavy Microbial Growth; 3 = Moderate Microbial Growth; 2 = Slight Microbial Growth; 1 = Trace Microbial Growth; 0 = No Microbial Growth; on Microbial growth, 2nd Inoculation, 1st sub-column: key: 4 = Heavy Microbial Growth; 3 = Moderate Microbial Growth; 2 = Slight Microbial Growth; 1 = Trace Microbial Growth; 0 = No Microbial Growth; on Microbial growth, 2nd Inoculation, 2nd sub-column: key: 4 = Heavy Microbial Growth; 3 = Moderate Microbial Growth; 2 = Slight Microbial Growth; 1 = Trace Microbial Growth; 0 = No Microbial Growth
Assay type: cell-based
Details: for Effective Preservative (ppm): two inoculation challenge
Experimental: Preservation Testing was performed on the three paint samples: Acrylic Flat, Acrylic and Vinyl Acrylic. Each sample was treated with various levels OPP, DGH individually and a mixture of OPP and DGH. All samples were then inoculated with wild strain bacteria isolated from previously contaminated systems. Following the initial inoculation, the samples were reinoculated on day 7. This testing scenario best simulates what happens in a “real world” situation. […]

[1] = Table 2 paint (Acrylic Flat / Vinyl Acrylic Flat), 250 ppm
[2] = Table 2 paint (Acrylic Flat / Vinyl Acrylic Flat), 500 ppm
[3] = Table 2 paint (Acrylic Flat / Vinyl Acrylic Flat), 750 ppm
[4] = Table 2 paint (Acrylic Flat / Vinyl Acrylic Flat), 1000 ppm
[5] = Table 2 paint (Acrylic Flat / Vinyl Acrylic Flat), 1500 ppm
[6] = Table 2 paint (Acrylic Flat / Vinyl Acrylic Flat), 2000 ppm
[7] = Table 3 paint (Vinyl Acrylic Flat / Acrylic Flat), 250 ppm
[8] = Table 3 paint (Vinyl Acrylic Flat / Acrylic Flat), 500 ppm
[9] = Table 3 paint (Vinyl Acrylic Flat / Acrylic Flat), 750 ppm
[10] = Table 3 paint (Vinyl Acrylic Flat / Acrylic Flat), 1000 ppm
[11] = Table 3 paint (Vinyl Acrylic Flat / Acrylic Flat), 1500 ppm
[12] = Table 3 paint (Vinyl Acrylic Flat / Acrylic Flat), 2000 ppm

CCCCCCCCCCCCNC(=N)N [DGH, Dodecylguanidine Hydrochloride]
Effective Preservative (ppm) (Acrylic Flat paint): 1500 ppm | Microbial growth, 1st Inoculation, 1st sub-column (Acrylic paint, 250 ppm): 3 | Microbial growth, 1st Inoculation, 2nd sub-column (Acrylic paint, 250 ppm): 3 | Microbial growth, 2nd Inoculation, 1st sub-column (Acrylic paint, 250 ppm): 3 | Microbial growth, 2nd Inoculation, 2nd sub-column (Acrylic paint, 250 ppm): 3 | Microbial growth, 1st Inoculation, 1st sub-column (Acrylic paint, 500 ppm): 3 | Microbial growth, 1st Inoculation, 2nd sub-column (Acrylic paint, 500 ppm): 3 | Microbial growth, 2nd Inoculation, 1st sub-column (Acrylic paint, 500 ppm): 2 | Microbial growth, 2nd Inoculation, 2nd sub-column (Acrylic paint, 500 ppm): 3 | Microbial growth, 1st Inoculation, 1st sub-column (Acrylic paint, 750 ppm): 3 | Microbial growth, 1st Inoculation, 2nd sub-column (Acrylic paint, 750 ppm): 2 | Microbial growth, 2nd Inoculation, 1st sub-column (Acrylic paint, 750 ppm): 2 | Microbial growth, 2nd Inoculation, 2nd sub-column (Acrylic paint, 750 ppm): 2 | Microbial growth, 1st Inoculation, 1st sub-column (Acrylic paint, 1000 ppm): 3 | Microbial growth, 1st Inoculation, 2nd sub-column (Acrylic paint, 1000 ppm): 2 | Microbial growth, 2nd Inoculation, 1st sub-column (Acrylic paint, 1000 ppm): 1 | Microbial growth, 2nd Inoculation, 2nd sub-column (Acrylic paint, 1000 ppm): 1 | Microbial growth, 1st Inoculation, 1st sub-column (Acrylic paint, 1500 ppm): 3 | Microbial growth, 1st Inoculation, 2nd sub-column (Acrylic paint, 1500 ppm): 0 | Microbial growth, 2nd Inoculation, 1st sub-column (Acrylic paint, 1500 ppm): 1 | Microbial growth, 2nd Inoculation, 2nd sub-column (Acrylic paint, 1500 ppm): 0 | Microbial growth, 1st Inoculation, 1st sub-column (Acrylic paint, 2000 ppm): 3 | Microbial growth, 1st Inoculation, 2nd sub-column (Acrylic paint, 2000 ppm): 0 | Microbial growth, 2nd Inoculation, 1st sub-column (Acrylic paint, 2000 ppm): 1 | Microbial growth, 2nd Inoculation, 2nd sub-column (Acrylic paint, 2000 ppm): 0 | Effective Preservative (ppm) (Acrylic paint): 2000 ppm | Microbial growth, 1st Inoculation, 1st sub-column [1]: 3 | Microbial growth, 1st Inoculation, 2nd sub-column [1]: 2 | Microbial growth, 2nd Inoculation, 1st sub-column [1]: 3 | Microbial growth, 2nd Inoculation, 2nd sub-column [1]: 2 | Microbial growth, 1st Inoculation, 1st sub-column [2]: 3 | Microbial growth, 1st Inoculation, 2nd sub-column [2]: 2 | Microbial growth, 2nd Inoculation, 1st sub-column [2]: 2 | Microbial growth, 2nd Inoculation, 2nd sub-column [2]: 2 | Microbial growth, 1st Inoculation, 1st sub-column [3]: 3 | Microbial growth, 1st Inoculation, 2nd sub-column [3]: 2 | Microbial growth, 2nd Inoculation, 1st sub-column [3]: 2 | Microbial growth, 2nd Inoculation, 2nd sub-column [3]: 2 | Microbial growth, 1st Inoculation, 1st sub-column [4]: 3 | Microbial growth, 1st Inoculation, 2nd sub-column [4]: 2 | Microbial growth, 2nd Inoculation, 1st sub-column [4]: 3 | Microbial growth, 2nd Inoculation, 2nd sub-column [4]: 2 | Microbial growth, 1st Inoculation, 1st sub-column [5]: 3 | Microbial growth, 1st Inoculation, 2nd sub-column [5]: 2 | Microbial growth, 2nd Inoculation, 1st sub-column [5]: 3 | Microbial growth, 2nd Inoculation, 2nd sub-column [5]: 1 | Microbial growth, 1st Inoculation, 1st sub-column [6]: 3 | Microbial growth, 1st Inoculation, 2nd sub-column [6]: 0 | Microbial growth, 2nd Inoculation, 1st sub-column [6]: 1 | Microbial growth, 2nd Inoculation, 2nd sub-column [6]: 0 | Microbial growth, 1st Inoculation, 1st sub-column [7]: 3 | Microbial growth, 1st Inoculation, 2nd sub-column [7]: 2 | Microbial growth, 2nd Inoculation, 1st sub-column [7]: 3 | Microbial growth, 2nd Inoculation, 2nd sub-column [7]: 2 | Microbial growth, 1st Inoculation, 1st sub-column [8]: 2 | Microbial growth, 1st Inoculation, 2nd sub-column [8]: 2 | Microbial growth, 2nd Inoculation, 1st sub-column [8]: 3 | Microbial growth, 2nd Inoculation, 2nd sub-column [8]: 1 | Microbial growth, 1st Inoculation, 1st sub-column [9]: 2 | Microbial growth, 1st Inoculation, 2nd sub-column [9]: 2 | Microbial growth, 2nd Inoculation, 1st sub-column [9]: 3 | Microbial growth, 2nd Inoculation, 2nd sub-column [9]: 1 | Microbial growth, 1st Inoculation, 1st sub-column [10]: 2 | Microbial growth, 1st Inoculation, 2nd sub-column [10]: 2 | Microbial growth, 2nd Inoculation, 1st sub-column [10]: 3 | Microbial growth, 2nd Inoculation, 2nd sub-column [10]: 1 | Microbial growth, 1st Inoculation, 1st sub-column [11]: 2 | Microbial growth, 1st Inoculation, 2nd sub-column [11]: 2 | Microbial growth, 2nd Inoculation, 1st sub-column [11]: 2 | Microbial growth, 2nd Inoculation, 2nd sub-column [11]: 2 | Microbial growth, 1st Inoculation, 1st sub-column [12]: 2 | Microbial growth, 1st Inoculation, 2nd sub-column [12]: 2 | Microbial growth, 2nd Inoculation, 1st sub-column [12]: 2 | Microbial growth, 2nd Inoculation, 2nd sub-column [12]: 2 | Effective Preservative (ppm) (Vinyl Acrylic Flat paint): >2000 ppm
